# Laboratory results taken from US20090209426A1, “HERBICIDAL MIXTURE” (priority 2006, published 2009).
# System: Digitaria nuda
# Experiment: Test A: greenhouse postemergence herbicidal effect on Digitaria nuda, visual rating 21 DAT
# Format: in vivo
# Description: Square plastic pots (10 cm on each side) were filled to the rim with a Redi-earth® (Sun Gro Horticulture, Bellevue, Wash.) planting medium containing 55-65% of Canadian sphagnum peat moss, horticultural grade vermiculite, dolomitic limestone and a wetting agent. The soil was tamped firm to a uniform level of 2.5 cm below the rim of the pot. A measured amount of Digitaria nuda seed was scattered on the soil surface of each pot. Seeded pots were covered with approximately 50 mL of the same planting media, tamped, and set out on a greenhouse bench.
# The pots were watered thoroughly at once and then as needed with a dilute balanced N—P—K fertilizer solution to provide 218 ppm nitrogen. Artificial lighting was used to supplement natural light to produce a 14-hour photoperiod. Greenhouse temperatures were targeted for 27° C. during the daytime and 21° C. at night. Once the plants reached their appropriate growth stage, the plants were sorted into test units prior to the herbicide application. Digitaria nuda was 5 to 7 cm in height and at the 3-leaf stage at the time of application.
# Test chemicals included diuron in the form of KARMEX® Herbicide, which is a 80 weight (wt.) % wettable granule formulation, a mixture of diuron with hexazinone in the form of DUPONT™ K4™ Herbicide, which a granule formulation containing 468 g of diuron and 132 g of hexazinone per kg of formulation, another mixture of diuron with hexazinone in the form of ADVANCE™ Herbicide, which is a wettable granule formulation containing 533 g of diuron and 67 g of hexazinone per kg of formulation, and mesotrione in the form of the commercial product CALLISTO® Herbicide, which is a 40 weight-volume (wt.-vol.) % suspension concentrate containing 400 g of mesotrione per liter of formulation. The application rates for this test were selected based on the recommended use rate of each compound. Application rates of diuron were 1800 g a.i./ha alone from KARMEX® Herbicide, 936 g a.i./ha from DUPONT™ K4™ Herbicide in combination with 264 g a.i./ha of hexazinone, and 1599 g a.i./ha from ADVANCE™ Herbicide in combination with 201 g a.i./ha of hexazinone. […] Furthermore diuron was tested alone and together with hexazinone in combination with mesotrione at these application rates.
# The herbicides were diluted in a measured amount of carrier solution to make stock solutions. The carrier solution was water containing 0.25% v/v of non-ionic adjuvant X-77. The stock solutions were all mixed for 10 minutes before aliquots were taken to make individual treatment solutions. Vials were then brought up to final spray volume of 24 mL. The treatments were sprayed at a pressure of 276 kPa through a T-Jet 8002E (Spraying Systems Co., Wheaton, Ill.) flat fan nozzle onto the surface of the plants in a stationary belt sprayer system calibrated to deliver 280 L/Ha. Treatments were replicated three times.
# The sprayed plants were placed in the greenhouse for observation; height and leaf stages were then recorded. Plants were maintained by watering as needed and in the same manner in which they were propagated with respect to nutrition, light, and day length. Visual evaluations were made 21 days after treatment (DAT). A numerical rating system was used to describe the visual response of each treatment on a scale of 0 to 100. Numerical ratings were expressed as the percent effect as compared to the control plants, calculated as the mean of the three replicates. Zero (0%) indicates no visual response, and 100% indicates plant death or a moribund state expected to rapidly end in death.
# Colby's equation was used to calculate the expected additive herbicidal effect of the mixtures of mesotrione with diuron, alone and in combination with hexazinone. Colby's equation (S. R. Colby, “Calculating Synergistic and Antagonistic Responses of Herbicide Combinations,” Weeds, 15(1), pp 20-22 (1967)) calculates the expected additive effect of herbicidal mixtures, and for two active ingredients is of the form: […]
compound,measurement,setting,value
"CS(=O)(=O)c1ccc(C(=O)C2C(=O)CCCC2=O)c([N+](=O)[O-])c1 [Mesotrione, 2-[4-(methylsulfonyl)-2-nitrobenzoyl]-1,3-cyclohexanedione]",Herbicidal Effect Observed,mesotrione 5 g a.i./ha alone (CALLISTO),3%
same,Herbicidal Effect Observed,mesotrione 10 g a.i./ha alone,17%
same,Herbicidal Effect Observed,mesotrione 20 g a.i./ha alone,33%
same,Herbicidal Effect Observed,mesotrione 30 g a.i./ha alone,50%
same,Herbicidal Effect Observed,mesotrione 40 g a.i./ha alone,53%
same,Herbicidal Effect Observed,mesotrione 60 g a.i./ha alone,73%
same,Herbicidal Effect Observed,mesotrione 90 g a.i./ha alone,88%
"CN(C)C(=O)Nc1ccc(Cl)c(Cl)c1 [Diuron, N′-(3,4-dichlorophenyl)-N,N-dimethylurea]",Herbicidal Effect Observed,"diuron 1800, hexazinone 0, mesotrione 0 g a.i./ha (KARMEX), mean of 3 replicates",20%
